Reference: patent publication US20240201191A1, “CITRULLINATED PROTEINS AS BIOMARKERS AND THERAPY TARGETS FOR CANCER” (BOARD OF REGENTS, THE UNIVERSITY OF TEXAS SYSTEM, priority 2022, published 2024)
Square brackets hold non-standard residues; d marks the D form. Ends that are not written are not given here. Cit = NC(=O)NCCC[C@H](N)C(=O)O

What was measured:
[1] = test system: B cell-mediated IgG secretion; assay: ELISpot IgG assay; format: cell-based; conditions: compared to media
From the text: (§1) Using ELISpot assays, we tested the unmodified and citrullinated forms of three pairs of synthesized ENO1 peptides predicted as having high MHC-II binding affinity and assessed B cell-mediated IgG and T cell-mediated IFNγ secretion (Table 9).

[2] = test system: T cell-mediated IFNγ secretion; assay: ELISpot IFNγ assay; format: cell-based; conditions: compared to media
From the text: as §1

“AMQEFMILPVGASSFR*EAMR*GA (AMQEFMILPVGASSF[Cit]EAM[Cit]GA) [citrullinated peptide-2, citrullinated synthesized ENO1 peptide, R16(Cit.), R20(Cit.)]” was tested. Which “B cell-mediated IgG response (ELISpot)” value [1] did it give?
Its value is “elicited a potent IgG response”.

How did the “B cell-mediated IgG response (ELISpot)” value [1] turn out when “R*AAVPSGASTGIYEALELR*DNDKTR* (RAAVPSGASTGIYEALELRDNDKTR; citrullinated arginines; MOD_RES (1)..(1) Citrullinated Arginine; MOD_RES (19)..(19) Citrullinated Arginine; MOD_RES (25)..(25) Citrullinated Arginine) [citrullinated peptide-1, citrullinated synthesized ENO1 peptide, position 32-56]” was run?
Its value is “elicited a potent IgG response”.

And the “T cell-mediated IFNγ secretion (ELISpot)” value [2]?
The value was “modest increase in IFNg secretion”.

And the “T cell-mediated IFNγ secretion (ELISpot)” value ([2]; listed as citrullinated peptide 1)?
Its value is “higher amount of INFγ response”.
